Reference: ChEMBL document CHEMBL1201862, “PubChem BioAssay data set” (2004)
The source made the active and inactive calls.

Tests used:
[1] = HEp-2 cell cytotoxicity, dose response, cytotoxicity control for RSV inhibitor project, HTS (AID 2410); type: functional; conditions: human respiratory syncytial virus
[2] = inhibitors of firefly luciferase expression or activity, dose response, H4 neuroglioma cells, luminescence (AID 1990); type: functional, cell-based
[3] = Luminescence Cell-Based Dose Response HTS to Identify Inhibitors of 5'UTR Stem-Loop Driven Prion Protein mRNA Translation in H4 Neuroglioblastoma Cells. [Related pubchem assays: 1827 (Project Summary), 1813 (Primary HTS)]; type: functional
[4] = inhibitors of SNCA 5'UTR-driven reporter translation, confirmation, H4 neuroglioma cells, luminescence (AID 1988); type: functional, cell-based
[5] = Luminescence Cell-Based Dose Retest to Confirm Inhibitors of Cancer Stem Cells. [Related pubchem assays (depositor defined):AID2717, AID2721]; type: functional; conditions: Homo sapiens
cells [6] = assay: cells
[7] = NIH-3T3 fibroblast cytotoxicity, dose response, cytotoxicity control, cell-based, fluorescence, Alamar Blue, secondary assay (AID 2327); type: functional;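 further: NIH-3T3 mouse fibroblasts cultured with fluconazole at 8 µg/mL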
[8] = A cytotoxicity screen of small molecule inhibitors of the PhoP region in Salmonella typhi identified in the primary screen. [Related pubchem assays: 1850, 1864, 1985 ]; type: functional
[9] = C. albicans growth with fluconazole, confirmation, fluorescence, retest (AID 2467); type: functional, cell-based
[10] = inhibitors of intracellular T. cruzi replication, confirmation, NIH3T3 host cells, beta-gal luminescence (AID 2044); type: functional, cell-based;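 further: intracellular parasites grown in NIH/3T3 mouse fibroblasts as host cells; luminescent beta-galactosidase reporter signal from transgenic T. cruzi replicating inside host cells; inhibitors lower the luminescence signal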
[11] = cytotoxicity toward NIH3T3 fibroblasts, dose response, counter-screen, cell-based, ATP luminescence, mouse fibroblasts (AID 2010); type: functional;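 further: cells exposed to compound for about 90 hours before reading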
[12] = target: T1, Short transient receptor potential channel 4 (Mus musculus, UniProt Q9QUQ5); assay: mouse TRPC4 channel activators, dose response, cell-based, HEK293 TRPC4/mu-opioid, Fluo-4 calcium (AID 434937); type: functional
T1 sequence (Q9QUQ5 whole entry): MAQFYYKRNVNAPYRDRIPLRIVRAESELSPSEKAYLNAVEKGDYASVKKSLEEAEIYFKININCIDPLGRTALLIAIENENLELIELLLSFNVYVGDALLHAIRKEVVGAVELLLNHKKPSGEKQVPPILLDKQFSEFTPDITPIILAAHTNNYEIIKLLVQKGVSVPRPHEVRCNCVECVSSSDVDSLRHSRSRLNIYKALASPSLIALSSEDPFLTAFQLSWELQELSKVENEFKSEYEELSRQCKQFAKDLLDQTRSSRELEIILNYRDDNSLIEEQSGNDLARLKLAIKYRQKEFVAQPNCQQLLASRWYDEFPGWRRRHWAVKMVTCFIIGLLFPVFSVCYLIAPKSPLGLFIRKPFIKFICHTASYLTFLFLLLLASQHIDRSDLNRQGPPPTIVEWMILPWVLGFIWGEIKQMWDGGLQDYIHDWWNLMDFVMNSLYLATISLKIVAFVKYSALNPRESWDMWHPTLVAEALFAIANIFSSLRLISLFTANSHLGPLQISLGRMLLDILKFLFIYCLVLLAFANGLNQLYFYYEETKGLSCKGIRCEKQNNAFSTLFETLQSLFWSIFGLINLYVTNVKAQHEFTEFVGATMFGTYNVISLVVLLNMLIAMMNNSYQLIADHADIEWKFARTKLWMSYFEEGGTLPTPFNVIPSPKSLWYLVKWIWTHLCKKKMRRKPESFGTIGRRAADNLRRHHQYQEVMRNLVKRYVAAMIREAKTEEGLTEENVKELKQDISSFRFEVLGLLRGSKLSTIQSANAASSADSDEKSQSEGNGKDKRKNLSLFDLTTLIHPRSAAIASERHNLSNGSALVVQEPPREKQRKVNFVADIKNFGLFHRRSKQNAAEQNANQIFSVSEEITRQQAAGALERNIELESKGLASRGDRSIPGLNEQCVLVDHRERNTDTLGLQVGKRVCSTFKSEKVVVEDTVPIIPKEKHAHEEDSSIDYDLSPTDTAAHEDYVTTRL

cells [13] = assay: cells; remark: listed apart in the source
[14] = target: T2, Calpain-2 catalytic subunit (Sus scrofa, UniProt P43367); assay: pig calpain II inhibitor potency, dose response, biochemical, fluorogenic peptide substrate (AID 1420); type: functional
T2 sequence (P43367 whole entry): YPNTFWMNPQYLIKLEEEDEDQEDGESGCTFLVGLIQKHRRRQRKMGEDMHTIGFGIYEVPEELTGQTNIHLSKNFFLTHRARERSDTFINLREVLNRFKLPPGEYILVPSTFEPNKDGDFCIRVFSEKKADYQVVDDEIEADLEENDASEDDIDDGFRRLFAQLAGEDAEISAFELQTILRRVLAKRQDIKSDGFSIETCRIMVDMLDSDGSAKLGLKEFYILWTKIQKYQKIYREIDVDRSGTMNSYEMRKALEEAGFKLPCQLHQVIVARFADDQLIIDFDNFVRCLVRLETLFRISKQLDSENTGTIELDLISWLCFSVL

[15] = growth suppression of PTEN-null colon cells, dose response, cell-based, HCT116 PTEN knockout (AID 1047); type: functional;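 further: HCT116 colon tumor cells with PTEN knocked out; cells exposed to compound for 60 hours before readout; potency for loss of cell viability measured by luminescence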
[16] = growth suppression of beta-catenin-knockout colon cells, dose response, cell-based, HCT116, human colon tumor (AID 1045); type: functional;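 further: HCT116 colon tumor cells with beta catenin knocked out; cells exposed to compound for 60 hours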
[17] = target: T3, Heat shock factor protein 1 (Mus musculus, UniProt P38532); assay: HSF1 potentiators in luciferase reporter cells, confirmation, cell-based, NIH3T3, luminescence, dose retest (AID 435004); type: functional;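 further: stress induced by proteasome inhibitor MG132 added 30 min after compound; luciferase reporter driven by HSF1 response element in NIH3T3 cells; actives raise luminescence as potentiators of the MG132 stress response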
T3 sequence (P38532 whole entry): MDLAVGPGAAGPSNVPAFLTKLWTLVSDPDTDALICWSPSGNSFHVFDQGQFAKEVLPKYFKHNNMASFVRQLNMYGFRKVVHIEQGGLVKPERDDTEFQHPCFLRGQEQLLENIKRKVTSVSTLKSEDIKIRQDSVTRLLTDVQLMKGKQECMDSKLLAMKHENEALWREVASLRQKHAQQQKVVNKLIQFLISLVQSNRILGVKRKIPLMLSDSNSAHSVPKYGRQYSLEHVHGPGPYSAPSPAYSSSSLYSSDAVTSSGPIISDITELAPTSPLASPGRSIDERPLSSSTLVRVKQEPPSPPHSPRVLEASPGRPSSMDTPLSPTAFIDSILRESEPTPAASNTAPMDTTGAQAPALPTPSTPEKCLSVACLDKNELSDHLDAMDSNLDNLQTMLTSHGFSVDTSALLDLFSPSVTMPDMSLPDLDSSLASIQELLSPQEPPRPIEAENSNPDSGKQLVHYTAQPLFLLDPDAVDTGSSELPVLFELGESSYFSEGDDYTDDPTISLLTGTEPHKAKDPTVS

Protein skinhead-1 = target: T4, Protein skinhead-1 (Caenorhabditis elegans, UniProt P34707); type: functional
T4 sequence (P34707 whole entry): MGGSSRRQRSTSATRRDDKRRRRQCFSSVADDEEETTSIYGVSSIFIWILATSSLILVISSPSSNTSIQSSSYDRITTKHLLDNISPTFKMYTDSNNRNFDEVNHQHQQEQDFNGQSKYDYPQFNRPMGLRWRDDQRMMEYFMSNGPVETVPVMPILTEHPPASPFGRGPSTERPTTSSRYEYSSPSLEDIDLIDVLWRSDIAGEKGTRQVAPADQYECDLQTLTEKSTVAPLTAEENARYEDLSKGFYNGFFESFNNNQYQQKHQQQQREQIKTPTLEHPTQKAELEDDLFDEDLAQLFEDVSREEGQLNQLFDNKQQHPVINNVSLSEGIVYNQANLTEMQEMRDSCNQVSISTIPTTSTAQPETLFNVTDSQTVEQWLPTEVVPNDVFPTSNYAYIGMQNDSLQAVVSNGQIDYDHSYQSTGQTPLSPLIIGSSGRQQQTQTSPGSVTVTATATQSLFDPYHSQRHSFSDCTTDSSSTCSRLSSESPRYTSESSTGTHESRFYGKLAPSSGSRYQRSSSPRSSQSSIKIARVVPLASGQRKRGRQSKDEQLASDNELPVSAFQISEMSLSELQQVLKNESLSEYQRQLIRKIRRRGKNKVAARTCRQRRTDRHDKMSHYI

[18] = target: T5, Ubiquitin-conjugating enzyme E2 N (Homo sapiens, UniProt P61088); type: functional;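 further: Dose-response confirmation in a TR-FRET assay detecting UBC13-driven polyubiquitin chain formation, inhibition measured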
T5 sequence (P61088 whole entry): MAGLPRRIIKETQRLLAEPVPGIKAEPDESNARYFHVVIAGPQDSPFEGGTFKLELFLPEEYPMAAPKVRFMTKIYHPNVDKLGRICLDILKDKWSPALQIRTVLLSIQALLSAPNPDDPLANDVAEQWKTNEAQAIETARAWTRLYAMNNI

Vero = assay: cells; type: functional; conditions: Chlorocebus sabaeus
Cytochrome P450 3A4 = Cytochrome P450 3A4 (Homo sapiens, UniProt P08684); conditions: Potency;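 further: confirmatory qHTS run detecting inhibitors and substrates of CYP3A4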
Sequence of Cytochrome P450 3A4 (P08684 whole entry): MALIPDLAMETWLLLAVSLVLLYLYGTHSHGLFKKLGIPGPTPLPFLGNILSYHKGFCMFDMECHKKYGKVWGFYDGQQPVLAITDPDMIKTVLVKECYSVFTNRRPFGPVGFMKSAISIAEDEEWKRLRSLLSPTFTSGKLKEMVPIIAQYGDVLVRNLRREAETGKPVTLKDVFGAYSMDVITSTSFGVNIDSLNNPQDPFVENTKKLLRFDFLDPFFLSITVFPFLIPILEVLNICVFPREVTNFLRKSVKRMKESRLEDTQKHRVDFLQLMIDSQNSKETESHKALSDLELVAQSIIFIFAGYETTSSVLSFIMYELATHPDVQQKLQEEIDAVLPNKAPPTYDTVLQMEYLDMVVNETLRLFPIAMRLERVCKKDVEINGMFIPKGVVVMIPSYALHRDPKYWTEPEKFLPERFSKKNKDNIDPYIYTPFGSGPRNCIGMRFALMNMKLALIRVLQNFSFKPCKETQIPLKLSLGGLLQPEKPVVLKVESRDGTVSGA

[19] = P. falciparum 3D7-ScDHODH growth inhibitors, dose response, SYBR Green, dry powder samples (AID 1159570); type: functional, cell-based;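 further: parasite growth measured after 72 hours of compound exposure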
[20] = HepG2 cell cytotoxicity, dose response, cytotoxicity control, plate reader, dry powder samples (AID 1159569); type: functional, cell-based;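 further: inhibitor potency with signal falling toward the positive control level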
[21] = P. falciparum Dd2 growth inhibitors, dose response, SYBR Green, cherry-picked samples (AID 1159567); type: functional, cell-based
[22] = P. falciparum Dd2 growth inhibitors, dose response, SYBR Green, dry powder samples (AID 1159566); type: functional, cell-based;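 further: potency for growth inhibition with lower SYBR green DNA signal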
[23] = P. falciparum ATP4 D1247Y mutant growth inhibitors, dose response, NITD609-resistant line, SYBR Green, dry powder (AID 1159571); type: functional, cell-based;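 further: parasites synchronized at ring stage by sorbitol before testing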

Structure (SMILES): O=C(Nc1ccncc1)c1cc(-c2cccc(Br)c2)nc2ccccc12
- CC50 [1]: 22.7 µM (active)
- EC50 [2]: > 120 µM (not active)
- EC50 [3]: > 120 µM (not active)
- EC50 [4]: > 120 µM (not active)
- AC50 [5]: 5.05 µM (active)
- IC50 (cells [6]): 17.4 µM (active)

Structure (SMILES): O=C(Nc1nonc1NC(=O)c1cccs1)c1cccs1
- EC50 [7]: > 150 µM (inactive)
- EC50 [8]: > 50 µM (active)
- EC50 [9]: 0.44 µM (active)

Structure (SMILES): CC(C)Cc1ccc(CN2CCCC(NC(=O)CCn3cnnn3)C2)cc1 (stereo not drawn)
- EC50 [10]: < 0.1 µM (active)
- EC50 [11]: > 30 µM (not active)
- EC50 [12]: 4.22 µM (active)
- EC50 (cells [13]): 0.046 µM (active)

Structure (SMILES): CCn1nc(C)c(CN2CCCC(C(=O)c3cccc(OC(C)C)c3)C2)c1C (stereo not drawn)
- EC50 [10]: < 0.1 µM (active)
- EC50 [11]: > 60 µM (not active)
- EC50 (cells [13]): 0.21 µM (active)

Structure (SMILES): COc1ccc(CNc2nc3ccccc3n2C)c(O)c1
- EC50 [8]: > 50 µM (active)

Structure (SMILES): CC(=O)Nc1ccc(S(=O)(=O)NCC2CCC(C(=O)NCCC3=CCCCC3)CC2)cc1 (stereo not drawn)
- IC50 [14]: 9.12 µM (not active)

Structure (SMILES): O=C(/C=C/c1ccccc1)Nc1nnc(SCC(=O)c2ccc3ccccc3c2)s1
- EC50 [15]: 9.17 µM (active)
- EC50 [16]: 9.72 µM (active)

Structure (SMILES): Cc1ccc(S(=O)(=O)NCC(=O)OCN2C(=O)c3ccccc3C2=O)cc1
- EC50 [8]: > 50 µM (active)

Structure (SMILES): O=C(CCCN1C(=O)c2cccc3cccc(c23)C1=O)N1CCN(c2ccccn2)CC1
- IC50 [14]: 2.13 µM (not active)

Structure (SMILES): O=C(CSc1nc2ccccc2c2nc3ccccc3n12)NCc1ccco1
- EC50 [17]: > 260 µM (inactive)
- IC50 (Protein skinhead-1): > 100 µM (inactive)
- IC50 (cells [6]): 45.6 µM (active)

Structure (SMILES): COc1ccc2cc3cc(C(=O)Nc4ccccc4N4CCN(C)CC4)oc3nc2c1
- EC50 [10]: 1.65 µM (active)
- EC50 [15]: 1.43 µM (active)
- EC50 [11]: 4.47 µM (active)
- EC50 [16]: 2.25 µM (active)
- IC50 [18]: > 20 µM (inactive)

Structure (SMILES): CN(C)CCCN(C(=O)c1nc2ccccc2s1)c1nc2ccc(F)cc2s1
- EC50 [10]: < 0.1 µM (active)
- EC50 [11]: > 60 µM (not active)
- CC50 (Vero): > 25 µM (active)
- EC50 (cells [13]): < 0.004 µM (active)

Structure (SMILES): Cc1ccccc1-n1nnnc1SCc1ncc(-c2ccccc2)o1
- IC50 [14]: 5.05 µM (not active)

Structure (SMILES): CCCCCCC#CC1C=CC(Oc2ccc(C=O)cc2)C(CO)O1 (stereo not drawn)
- AC50 (Cytochrome P450 3A4): 3.98 µM (inconclusive)

Structure (SMILES): Cc1c2ccccc2nc2c(F)c(NCCO)c(F)c(F)c12
- EC50 [7]: > 160 µM (inactive)
- CC50 [1]: 1.77 µM (active)
- EC50 [9]: > 38 µM (not active)
- IC50 (cells [6]): 1.53 µM (active)

Structure (SMILES): COc1ccccc1NC(=O)/C=C\C(=O)O
- IC50 [14]: 17.4 µM (not active)

Structure (SMILES): O=C(OCc1nnc(-c2ccccc2)o1)C12CC3CC(CC(Br)(C3)C1)C2
- IC50 [14]: 3.14 µM (not active)

Structure (SMILES): N#Cc1ccc(-c2ccc(OCC(=O)NCCCN3CCCC3=O)cc2)cc1
- EC50 [8]: > 50 µM (active)

Structure (SMILES): CCNC(=O)Oc1cccnc1O
- EC50 [8]: > 50 µM (active)

Structure (SMILES): COc1ccccc1CN1C[C@@H]2N[C@H](C1)[C@@H]2c1ccc(-c2ccncc2)cc1
- AC50 [19]: 3.59 µM (active)
- AC50 [20]: 24.6 µM (active)
- AC50 [21]: 2.48 µM (active)
- AC50 [22]: 2.02 µM (active)
- AC50 [23]: 3.07 µM (active)

Structure (SMILES): C[C@H]1CN([C@@H](C)CO)C(=O)c2c(c3ccccc3n2C)-c2ccccc2CO[C@H]1CN(C)C(=O)Nc1ccc(-c2ccccc2)cc1
- AC50 [19]: 2.71 µM (active)
- AC50 [20]: > 100 µM (inactive)
- AC50 [21]: 2.08 µM (active)
- AC50 [22]: 0.656 µM (active)
- AC50 [23]: 0.634 µM (active)

Structure (SMILES): C=CCSc1nc2sc3c(c2c(=O)n1-c1ccccc1)CCN(C)C3
- EC50 [10]: < 0.1 µM (active)
- EC50 [11]: > 60 µM (not active)
- EC50 (cells [13]): 0.474 µM (active)

Structure (SMILES): Clc1ccc(C(c2ccccc2)N2CCNCC2)cc1 (stereo not drawn) [NORCHLORCYCLIZINE]
- EC50 [8]: > 50 µM (active)
